Results on one compound are retold here after patent publication US9249159B2, “Composition for treating hepatitis C virus, regulating phosphorylation of replicase” (Industry-Academic Cooperation Foundation, Yonsei University, priority 2011, dated 2016).

The test system of one assay is Huh7 cells. Description: Cell cycle analysis of Huh7 cells by flow cytometer. In kind it is cell-based, human. Particulars: 48 hours, 17-DMAG 500 nM. How it is done:
The Huh7 cell treated with 17-DMAG or HA1077 for 48 hours was collected and washed with PBS. The cells were fixed with chilled ethanol for 30 min, treated with RNase A (100 μg/ml) for 5 min at room temperature, stained with 50 μg/mL propidium iodide (PI, Sigma-Aldrich) for 30 min at 37° C., and analyzed using a FACS Calibur flow cytometer (Becton Dickinson, San Jose, Calif., USA).
Then, a cell cycle assay was carried out by using a flow cytometer. Huh7 cells were treated with DMSO (0.25%) or 500 nM of 17-DMAG for 48 hours, and a cell cycle thereof was analyzed by using a flow cytometer to show the percentage of cells in G1, S, and G2/M phases. LY294002 as a PI3K inhibitor was used as a positive control.

Another assay deals with HCV IRES. As to the kind of experiment: Dual luciferase reporter assay of translation via HCV IRES in Huh7 cell. The class given is cell-based, hepatitis C virus. Particulars: various concentrations, 72 hours. The source says:
The dual luciferase expression vector allowing cap-dependent translation of a Renilla (RLuc) reporter and HCV internal ribosome entry site (IRES)-mediated luciferase translation of a firefly luciferase (FLuc) reporter was constructed by inserting the HCV IRES and partial core protein-coding region fused to the cDNA for FLuc downstream of the Renilla luciferase reporter gene as described previously. Huh7 cells were transiently transfected with the bicistronic dual luciferase vector using Fugene HD (Roche Applied Science, Indianapolis, Ind., USA). RLuc and FLuc activities in cell lysates were quantified using the Dual-Glo luciferase assay kit (Promega) on the GloMax-Multi detection system (Promega).
Then, in order to observe an effect of 17-DMAG on translation via HCV IRES, a dual reporter assay was carried out. The Huh7 cell was transfected by a dual reporter assay plasmid (FIG. 11B, upper diagram), and treated with 17-DMAG at various concentrations for 72 hours. […] A level of the Firefly luciferase […] and a Renilla luciferase […] was measured by dual luciferase assay and expressed in % with respect to a control treated with DMSO (first bar). […]
Background: In a reporter assay the amount or activity of a reporter protein is the signal.

The next assay deals with pan-PKC (α, β, and γ). As to the kind of experiment: pan-PKC level in Huh7 cell by immunoblotting. In kind it is cell-based. Particulars: 48 hours. The source says: (§1) Total cell lysates from cells treated with inhibitors or IFN-α by using antibodies to PDK1, p-PDK1 (S241), PRK2, and p-PRK2 (T816) (products of Cell Signaling Technology, Inc., Beverly, Mass., USA) was used for immunoblotting. In order to detect PKC isoforms α, β, and γ, a polyclonal antibody to a consensus sequence present in three PKC (protein kinase C) isoforms α, β and γ (anti-pan-PKC; Zymed Laboratories, San Francisco, Calif., USA) was used. An anti-α-tubulin antibody (Oncogene Research Products, Cambridge, Mass., USA) was carried out in immunoblotting for checking whether or not the same amount of protein was loaded.
In order to test whether or not PDK1 in Huh7 as an HCC cell line was destabilized by inhibition of Hsp90, 17-DMAG as a second-generation geldanamycin derivative known as being safer than geldanamycin or its derivative 17-AAG and effective for oral delivery was used (FIG. 8A). The Huh7 cell was treated for 48 hours along with an increase in concentration of 17-DMAG, and a steady state level of PDK1 was evaluated by immunoblotting.

In the next assay the test system is PDK1. Description: PDK1 level and activation in R-1 cell by immunoblotting. The class given is cell-based. Particulars: 10 or 50 nM, 72 hours.
Excerpt: as §1
Therefore, anti-HCV activity of 17-DMAG in the R-1 cell was tested at a level lower than 50 nM. To do so, the R-1 cell was treated with a vehicle (0.25% DMSO) or 17-DMAG for 72 hours and the cell lysates (50 μg) and antibodies specific to the proteins were immunoblotted to measure levels of the proteins. An anti-α-tubulin antibody (lower end panel) was used as an internal loading control. The levels of the proteins were measured by densitometric analysis of immunoblot, and the phosphorylated amounts and relative intensities calculated with respect to PDK1 and PDK2 were converted with respect to α-tubulin signals and then quantitated. As a result of three independent experiments showing similar results, a representative blot picture was illustrated. […]

In the case of `CO[C@H]1/C=C\C=C(/C)C(=O)NC2=CC(=O)C(NCCN(C)C)=C(C[C@@H](C)C[C@H](OC)[C@H](O)[C@@H](C)/C=C(\C)[C@@H]1OC(N)=O)C2=O` [17-DMAG, 17-(dimethylaminoethylamino)-17-demethoxygeldanamycin], the “cell cycle (G1, S, G2/M phases)” value with Huh7 cells is recorded as “not significantly changed”. Moreover, the “effect on translation via HCV IRES” value with HCV IRES is “did not have an effect”. In addition, the “steady state content of pan-PKC (α, β, and γ)” value with pan-PKC (α, β, and γ) is given as “not significantly affected”. In the assay with PDK1, the “level of PDK1” value is on record as “decreased”.
